In general, melting point refers to the temperature of the solid-liquid transition. For orientation: IC50 means the concentration that gives 50% inhibition.

Our source for the melting point and IC50 values is patent US6627634B2, “Bicyclic heterocycles, pharmaceutical compositions containing them, their use, and processes for preparing them” (Boehringer Ingelheim Pharma KG, priority 2000, dated 2003).

SMILES strings stand for the structures.

One series has as its target T1, human EGF-R (Homo sapiens, UniProt P00533).
T1 construct: expressed in transfected cells; host or cells: F/L-HERc cells (murine IL-3-dependent FDC-P1 line transduced with retroviral vector LXSN carrying human EGF-R cDNA; packaging line GP+E86)
Kind of series: Inhibition of EGF-dependent proliferation of F/L-HERc cells. The class given is cell-based. The note with it: F/L-HERc cells (murine IL-3-dependent line expressing human EGF-R), stimulated with EGF 20 ng/ml, 48 hours, Cell Titer 96 AQueous assay. The text has this: A cell line of murine origin dependent on interleukin-3-(IL-3) which was genetically modified to express functional human EGF-R was used here. The proliferation of these cells known as F/L-HERc can therefore be stimulated either by murine IL-3 or by EGF (cf. T. von Rüiden et al. in EMBO J. 7, 2749-2756 (1988) and J. H. Pierce et al. in Science 239, 628-631 (1988)).
The starting material used for the F/L-HERc cells was the cell line FDC-P1, the production of which has been described by T. M. Dexter et al., J. Exp. Med. 152 1036-1047 (1980). Alternatively, however, other growth-factor-dependent cells may also be used (cf., e.g., J. H. Pierce et al., Science 239, 628-631 (1988); H. Shibuya et al., Cell 70, 57-67 (1992); and W. S. Alexander et al., EMBO J. 10, 3683-3691 (1991)). For expressing the human EGF-R cDNA (cf. A. Ullrich et al., Nature 309, 418-425 (1984)) recombinant retroviruses were used as described by T. von Rüiden et al., EMBO J. 7, 2749-2756 (1988), except that the retroviral vector LXSN (cf. A. D. Miller et al., BioTechniques 7, 980-990 (1989)) was used for the expression of the EGF-R cDNA and the line GP+E86 (cf. D. Markowitz et al., J. Virol. 62, 1120-1124 (1988)) was used as the packaging cell.
F/L-HERc cells were cultivated in RPMI/1640 medium (BioWhittaker), supplemented with 10% fetal calf serum (FCS, Boehringer Mannheim), 2 mM glutamine (BioWhittaker), standard antibiotics and 20 ng/ml of human EGF (Promega), at 37° C. and 5% CO2. In order to investigate the inhibitory activity of the compounds according to the invention, 1.5×10^4 cells per well were cultivated in triplicate in 96-well dishes in the above medium (200 μl), the cell proliferation being stimulated with either EGF (20 ng/ml) or murine IL-3. The IL-3 used was obtained from culture supernatants of the cell line X63/0 mIL-3 (cf. H. Karasuyama et al., Eur. J. Immunol. 18, 97-104 (1988)). The compounds according to the invention were dissolved in 100% dimethylsulfoxide (DMSO) and added to the cultures in various dilutions, the maximum DMSO concentration being 1%. The cultures were incubated for 48 hours at 37° C.
In order to determine the inhibitory activity of the compounds according to the invention the relative cell number was measured in O.D. units using the Cell Titer 96™ AQueous Non-Radioactive Cell Proliferation Assay (Promega). The relative cell number was calculated as a percentage of the control (F/LHERc cells without inhibitor) and the concentration of active substance which inhibits the proliferation of the cells by 50% (IC50) was derived therefrom.

T1 sequence (P00533 25-1210): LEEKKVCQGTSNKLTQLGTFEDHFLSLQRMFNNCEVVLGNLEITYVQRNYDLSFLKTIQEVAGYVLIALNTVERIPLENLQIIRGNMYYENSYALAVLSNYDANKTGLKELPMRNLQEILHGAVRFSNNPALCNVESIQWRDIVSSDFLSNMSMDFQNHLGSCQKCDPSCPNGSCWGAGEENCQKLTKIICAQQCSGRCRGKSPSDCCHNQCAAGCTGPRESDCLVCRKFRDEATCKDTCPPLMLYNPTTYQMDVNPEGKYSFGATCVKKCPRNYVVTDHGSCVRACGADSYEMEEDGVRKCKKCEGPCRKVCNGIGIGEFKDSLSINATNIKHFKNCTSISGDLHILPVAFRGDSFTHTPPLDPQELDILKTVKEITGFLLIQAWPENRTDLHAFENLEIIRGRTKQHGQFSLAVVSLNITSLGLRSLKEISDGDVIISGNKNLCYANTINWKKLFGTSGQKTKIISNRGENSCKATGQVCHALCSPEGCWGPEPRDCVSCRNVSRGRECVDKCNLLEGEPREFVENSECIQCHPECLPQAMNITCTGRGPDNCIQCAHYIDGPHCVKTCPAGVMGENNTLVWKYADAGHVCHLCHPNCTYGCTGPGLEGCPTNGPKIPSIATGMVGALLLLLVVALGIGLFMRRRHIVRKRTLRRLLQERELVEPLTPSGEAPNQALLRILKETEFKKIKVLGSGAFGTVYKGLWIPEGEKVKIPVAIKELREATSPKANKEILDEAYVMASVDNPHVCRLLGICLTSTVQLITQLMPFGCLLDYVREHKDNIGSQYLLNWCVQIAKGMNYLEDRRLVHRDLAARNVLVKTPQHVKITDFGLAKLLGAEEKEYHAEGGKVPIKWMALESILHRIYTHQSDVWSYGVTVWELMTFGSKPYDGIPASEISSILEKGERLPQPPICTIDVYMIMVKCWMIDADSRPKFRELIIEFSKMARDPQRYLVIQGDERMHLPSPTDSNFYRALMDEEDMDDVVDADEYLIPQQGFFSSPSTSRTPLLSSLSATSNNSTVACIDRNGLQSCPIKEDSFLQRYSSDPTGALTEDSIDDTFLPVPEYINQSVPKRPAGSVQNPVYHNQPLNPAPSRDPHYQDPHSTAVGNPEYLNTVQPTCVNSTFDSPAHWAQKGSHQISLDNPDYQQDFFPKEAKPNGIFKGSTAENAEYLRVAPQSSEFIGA

As to `O=C(C=CCN1CCN(C(=O)[C@@H]2CCC(=O)O2)CC1)Nc1cc2c(Nc3ccc(F)c(Cl)c3)ncnc2cc1OCC1CC1` [Example 3, (S)-4-[(3-chloro-4-fluorophenyl)amino]-6-[(4-{4-[(5-oxotetrahydrofuran-2-yl)carbonyl]piperazin-1-yl}-1-oxo-2-buten-1-yl)amino]-7-cyclopropylmethoxyquinazoline], the melting point was 155 to 157 °C. Turning to `O=C(C=CCN1CCN(C2CCOC2=O)CC1)Nc1cc2c(Nc3ccc(F)c(Cl)c3)ncnc2cc1OCC1CC1` (stereo not drawn) [Example 1, 4-[(3-chloro-4-fluorophenyl)amino]-6-({4-[4-(2-oxotetrahydrofuran-3-yl)piperazin-1yl]-1-oxo-2-buten-1-yl}amino)-7-cyclopropylmethoxyquinazoline], the melting point is 130 to 131 °C. Also, the IC50 against human EGF-R amounted to 0.05 nM. On human EGF-R, `O=C(C=CCN1CCN(CCSC2CCOC2=O)CC1)Nc1cc2c(Nc3ccc(F)c(Cl)c3)ncnc2cc1OCC1CC1` (stereo not drawn) [Example 4, 4-[(3-chloro-4-fluorophenyl)amino]-6-{[4-(4-{2-[(2-oxotetrahydrofuran-3-yl)sulfanyl]ethyl}piperazin-1-yl)-1-oxo-2-buten-1-yl]amino}-7-cyclopropylmethoxyquinazoline] showed an IC50 of 3 nM.

On to `O=C(C=CCN1CCN2CC(=O)OCC2C1)Nc1cc2c(Nc3ccc(F)c(Cl)c3)ncnc2cc1OCC1CC1` (stereo not drawn) [4(3), 4-[(3-chloro-4-fluorophenyl)amino]-6-{[4-(3-oxoperhydropyrazino[2,1-c][1,4]oxazin-8-yl)-1-oxo-2-buten-1-yl]amino}-7-cyclopropylmethoxyquinazoline], for which, on human EGF-R, the IC50 came to 10 nM.

For `O=C(C=CCN1CCN(C2COC(=O)C2)CC1)Nc1cc2c(Nc3ccc(F)c(Cl)c3)ncnc2cc1OCC1CC1` (stereo not drawn) [Example 2, 4-[(3-chloro-4-fluorophenyl)amino]-6-({4-[4-(2-oxotetrahydrofuran-4-yl)piperazin-1-yl]-1-oxo-2-buten-1-yl}amino)-7-cyclopropylmethoxyquinazoline], inhibition on human EGF-R was half-maximal at 0.6 nM (IC50).
